Data as given in patent US8871753B2, “Macrocyclic compounds and their use as kinase inhibitors” (Incyte Corporation, priority 2008, dated 2014).

What was measured:
[1] = target: T1, human JAK1 (a.a. 837-1142) (Homo sapiens, UniProt P23458); assay: In vitro JAK kinase assay (HTRF, phosphorylation of a biotinylated peptide), JAK1; assay type: biochemical; details: Table D1; read-out: JAK1 IC50
T1 construct: human JAK1 (a.a. 837-1142); His tag (N); made in house; host or cells: insect cells (baculovirus)
Protocol: (§1) The catalytic activity of JAK1, JAK2 or JAK3 was assayed by measuring the phosphorylation of a biotinylated peptide. The phosphorylated peptide was detected by homogenous time resolved fluorescence (HTRF). […] The ATP concentration in the reactions was 90 μM for JAK1, 30 μM for JAK2 and 3 μM for JAK3. Reactions were carried out at room temperature for 1 hr and then stopped with 20 μL 45 mM EDTA, 300 nM SA-APC, 6 nM Eu-Py20 in assay buffer (Perkin Elmer, Boston, Mass.). Binding to the Europium labeled antibody took place for 40 minutes and HTRF signal was measured on a Fusion plate reader (Perkin Elmer, Boston, Mass.).
(§2) The catalytic activity of JAK1, JAK2 or JAK3 was assayed by measuring the phosphorylation of a biotinylated peptide. The phosphorylated peptide was detected by homogenous time resolved fluorescence (HTRF). […] Reactions were carried out at room temperature for 1 hr and then stopped with 20 μL 45 mM EDTA, 300 nM SA-APC, 6 nM Eu-Py20 in assay buffer (Perkin Elmer, Boston, Mass.). Binding to the Europium labeled antibody took place for 40 minutes and HTRF signal was measured on a Fusion plate reader (Perkin Elmer, Boston, Mass.).

[2] = target: T2, human JAK2 (a.a. 828-1132) (Homo sapiens, UniProt O60674); assay: In vitro JAK kinase assay (HTRF, phosphorylation of a biotinylated peptide), JAK2; assay type: biochemical; details: Table D1
T2 construct: JAK2 (a.a. 828-1132); His tag (N); made in house; host or cells: insect cells (baculovirus)
Protocol: as §1, §2

T1 sequence (P23458 849-1154): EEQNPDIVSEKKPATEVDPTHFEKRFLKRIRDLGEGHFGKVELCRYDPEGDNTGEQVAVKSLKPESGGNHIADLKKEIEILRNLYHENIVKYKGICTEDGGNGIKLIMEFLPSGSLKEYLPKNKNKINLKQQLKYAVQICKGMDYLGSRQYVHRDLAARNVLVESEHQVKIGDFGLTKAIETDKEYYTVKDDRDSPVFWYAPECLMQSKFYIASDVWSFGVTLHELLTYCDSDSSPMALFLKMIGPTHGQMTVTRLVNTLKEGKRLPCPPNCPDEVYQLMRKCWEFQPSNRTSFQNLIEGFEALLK
T2 sequence (O60674 828-1132): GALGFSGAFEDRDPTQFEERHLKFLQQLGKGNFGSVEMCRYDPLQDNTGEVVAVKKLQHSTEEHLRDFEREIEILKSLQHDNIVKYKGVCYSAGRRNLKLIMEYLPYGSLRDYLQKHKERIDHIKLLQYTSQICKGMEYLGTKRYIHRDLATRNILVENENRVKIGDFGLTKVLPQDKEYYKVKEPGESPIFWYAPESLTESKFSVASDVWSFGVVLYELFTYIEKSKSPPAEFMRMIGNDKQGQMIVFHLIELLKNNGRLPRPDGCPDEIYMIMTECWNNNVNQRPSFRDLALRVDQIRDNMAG

SMILES: O=C(C[C@@H]1CCN(C(=O)c2nccs2)C1)Nc1ccc2cc1CCc1cncc(c1)Nc1ncc(Cl)c(n1)N2 [Example D125, N-[6-Chloro-2,4,8,18,22-pentaazatetracyclo[14.3.1.1(3,7).1(9,13)]docosa-1(20),3(22),4,6,9(21),10,12,16,18-nonaen-12-yl]-2-[(3S)-1-(1,3-thiazol-2-ylcarbonyl)pyrrolidin-3-yl]acetamide bis(trifluoroacetate)]
- IC50 [1]: 34 nM

SMILES: O=C(C[C@@H]1CCN(C(=O)c2nc[nH]n2)C1)Nc1ccc2cc1CCc1cncc(c1)Nc1ncc(Cl)c(n1)N2 [Example D131, N-[6-Chloro-2,4,8,18,22-pentaazatetracyclo[14.3.1.1(3,7).1(9,13)]docosa-1(20),3(22),4,6,9(21),10,12,16,18-nonaen-12-yl]-2-[(3S)-1-(1H-1,2,4-triazol-3-ylcarbonyl)pyrrolidin-3-yl]acetamide bis(trifluoroacetate)]
- IC50 [1]: 8.6 nM
- IC50 [2]: 125 nM

SMILES: O=C(C[C@H]1CCCN(c2nc3cccnc3o2)C1)Nc1ccc2cc1CCc1cncc(c1)Nc1ncc(Cl)c(n1)N2 [Example D214, N-[6-Chloro-2,4,8,18,22-pentaazatetracyclo[14.3.1.1(3,7).1(9,13)]docosa-1(20),3(22),4,6,9(21),10,12,16,18-nonaen-12-yl]-2-[(3R)-1-[1,3]oxazolo[5,4-b]pyridin-2-ylpiperidin-3-yl]acetamide tris(trifluoroacetate)]
- IC50 [1]: 12 nM
- IC50 [2]: > 1000 nM

SMILES: Cn1ccc(C(=O)N2CC[C@@H](CC(=O)Nc3ccc4cc3CCc3cncc(c3)Nc3ncc(Cl)c(n3)N4)C2)n1 [Example D121, N-[6-Chloro-2,4,8,18,22-pentaazatetracyclo[14.3.1.1(3,7).1(9,13)]docosa-1(20),3(22),4,6,9(21),10,12,16,18-nonaen-12-yl]-2-{(3S)-1-[(1-methyl-1H-pyrazol-3-yl)carbonyl]pyrrolidin-3-yl}acetamide bis(trifluoroacetate)]
- IC50 [1]: 75 nM
- IC50 [2]: 550 nM

SMILES: O=C(C[C@H]1CCN(C(=O)Nc2ccccc2)C1)Nc1ccc2cc1CCc1cncc(c1)Nc1ncc(Cl)c(n1)N2 [Example D97, (3R)-3-(2-{[6-Chloro-2,4,8,18,22-pentaazatetracyclo[14.3.1.1(3,7).1(9,13)]docosa-1(20),3(22),4,6,9(21),10,12,16,18-nonaen-12-yl]amino}-2-oxoethyl)-N-phenylpyrrolidine-1-carboxamide bis(trifluoroacetate)]
- IC50 [1]: 3.3 nM
- IC50 [2]: 84 nM

SMILES: O=C(C[C@@H]1CCN(C(=O)Nc2ccc(F)cc2)C1)Nc1ccc2cc1CCc1cncc(c1)Nc1ncc(Cl)c(n1)N2 [Example D118, (3S)-3-(2-{[6-Chloro-2,4,8,18,22-pentaazatetracyclo[14.3.1.1(3,7).1(9,13)]docosa-1(20),3(22),4,6,9(21),10,12,16,18-nonaen-12-yl]amino}-2-oxoethyl)-N-(4-fluorophenyl)pyrrolidine-1-carboxamide bis(trifluoroacetate)]
- IC50 [1]: 12 nM
- IC50 [2]: 236 nM

SMILES: N#Cc1ccccc1NC(=O)N1CC[C@@H](CC(=O)Nc2ccc3cc2CCc2cncc(c2)Nc2ncc(Cl)c(n2)N3)C1 [Example D116, (3S)-3-(2-{[6-Chloro-2,4,8,18,22-pentaazatetracyclo[14.3.1.1(3,7).1(9,13)]docosa-1(20),3(22),4,6,9(21),10,12,16,18-nonaen-12-yl]amino}-2-oxoethyl)-N-(2-cyanophenyl)pyrrolidine-1-carboxamide bis(trifluoroacetate)]
- IC50 [1]: 23 nM
- IC50 [2]: 577 nM

SMILES: O=C(C[C@@H]1CCN(C(=O)Nc2cccnc2)C1)Nc1ccc2cc1CCc1cncc(c1)Nc1ncc(Cl)c(n1)N2 [Example D117, (3S)-3-(2-{[6-Chloro-2,4,8,18,22-pentaazatetracyclo[14.3.1.1(3,7).1(9,13)]docosa-1(20),3(22),4,6,9(21),10,12,16,18-nonaen-12-yl]amino}-2-oxoethyl)-N-pyridin-3-ylpyrrolidine-1-carboxamide tris(trifluoroacetate)]
- IC50 [1]: 39 nM
- IC50 [2]: 392 nM

SMILES: N#Cc1ccccc1NC(=O)N1CC[C@H](CC(=O)Nc2ccc3cc2CCc2cncc(c2)Nc2ncc(Cl)c(n2)N3)C1 [Example D100, (3R)-3-(2-{[6-Chloro-2,4,8,18,22-pentaazatetracyclo[14.3.1.1(3,7).1(9,13)]docosa-1(20),3(22),4,6,9(21),10,12,16,18-nonaen-12-yl]amino}-2-oxoethyl)-N-(2-cyanophenyl)pyrrolidine-1-carboxamide bis(trifluoroacetate)]
- IC50 [1]: 20 nM
- IC50 [2]: 191 nM

SMILES: O=C(C[C@H]1CCN(C(=O)Nc2cccc(F)c2)C1)Nc1ccc2cc1CCc1cncc(c1)Nc1ncc(Cl)c(n1)N2 [Example D103, (3R)-3-(2-{[6-Chloro-2,4,8,18,22-pentaazatetracyclo[14.3.1.1(3,7).1(9,13)]docosa-1(20),3(22),4,6,9(21),10,12,16,18-nonaen-12-yl]amino}-2-oxoethyl)-N-(3-fluorophenyl)pyrrolidine-1-carboxamide bis(trifluoroacetate)]
- IC50 [1]: 6.7 nM
- IC50 [2]: 113 nM

SMILES: O=C(C[C@H]1CCN(C(=O)c2cn[nH]c2)C1)Nc1ccc2cc1CCc1cncc(c1)Nc1ncc(Cl)c(n1)N2 [Example D129-b, N-[6-Chloro-2,4,8,18,22-pentaazatetracyclo[14.3.1.1(3,7).1(9,13)]docosa-1(20),3(22),4,6,9(21),10,12,16,18-nonaen-12-yl]-2-[(3R)-1-(1H-pyrazol-4-ylcarbonyl)pyrrolidin-3-yl]acetamide bis(trifluoroacetate)]
- IC50 [1]: 33 nM
- IC50 [2]: 600 nM

SMILES: O=C(C[C@@H]1CCN(C(=O)c2c[nH]nn2)C1)Nc1ccc2cc1CCc1cncc(c1)Nc1ncc(Cl)c(n1)N2 [Example D132, N-[6-Chloro-2,4,8,18,22-pentaazatetracyclo[14.3.1.1(3,7).1(9,13)]docosa-1(20),3(22),4,6,9(21),10,12,16,18-nonaen-12-yl]-2-[(3S)-1-(1H-1,2,3-triazol-4-ylcarbonyl)pyrrolidin-3-yl]acetamide bis(trifluoroacetate)]
- IC50 [1]: 3.2 nM
- IC50 [2]: 43 nM

SMILES: O=C(C[C@H]1CCCN(c2nc3ccccc3s2)C1)Nc1ccc2cc1CCc1cncc(c1)Nc1ncc(Cl)c(n1)N2 [Example D212, 2-[(3R)-1-(1,3-Benzothiazol-2-yl)piperidin-3-yl]-N-[6-chloro-2,4,8,18,22-pentaazatetracyclo[14.3.1.1(3,7).1(9,13)]docosa-1(20),3(22),4,6,9(21),10,12,16,18-nonaen-12-yl]acetamide tris(trifluoroacetate)]
- IC50 [1]: 64 nM
- IC50 [2]: > 1000 nM

SMILES: O=C(C[C@@H]1CCCN(c2nc3cccnc3o2)C1)Nc1ccc2cc1CCc1cncc(c1)Nc1ncc(Cl)c(n1)N2 [Example D213, N-[6-Chloro-2,4,8,18,22-pentaazatetracyclo[14.3.1.1(3,7).1(9,13)]docosa-1(20),3(22),4,6,9(21),10,12,16,18-nonaen-12-yl]-2-[(3S)-1-[1,3]oxazolo[5,4-b]pyridin-2-ylpiperidin-3-yl]acetamide tris(trifluoroacetate)]
- IC50 [1]: 11 nM

SMILES: Cc1oncc1C(=O)N1CC[C@@H](CC(=O)Nc2ccc3cc2CCc2cncc(c2)Nc2ncc(Cl)c(n2)N3)C1 [Example D123, N-[6-Chloro-2,4,8,18,22-pentaazatetracyclo[14.3.1.1(3,7).1(9,13)]docosa-1(20),3(22),4,6,9(21),10,12,16,18-nonaen-12-yl]-2-{(3S)-1-[(5-methylisoxazol-4-yl)carbonyl]pyrrolidin-3-yl}acetamide bis(trifluoroacetate)]
- IC50 [1]: 50 nM

SMILES: Cc1cc(C(=O)N2CC[C@@H](CC(=O)Nc3ccc4cc3CCc3cncc(c3)Nc3ncc(Cl)c(n3)N4)C2)no1 [Example D124, N-[6-Chloro-2,4,8,18,22-pentaazatetracyclo[14.3.1.1(3,7).1(9,13)]docosa-1(20),3(22),4,6,9(21),10,12,16,18-nonaen-12-yl]-2-{(3S)-1-[(5-methylisoxazol-3-yl)carbonyl]pyrrolidin-3-yl}acetamide bis(trifluoroacetate)]
- IC50 [1]: 16 nM

SMILES: Cn1cncc1C(=O)N1CC[C@@H](CC(=O)Nc2ccc3cc2CCc2cncc(c2)Nc2ncc(Cl)c(n2)N3)C1 [Example D126, N-[6-Chloro-2,4,8,18,22-pentaazatetracyclo[14.3.1.1(3,7).1(9,13)]docosa-1(20),3(22),4,6,9(21),10,12,16,18-nonaen-12-yl]-2-{(3S)-1-[(1-methyl-1H-imidazol-5-yl)carbonyl]pyrrolidin-3-yl}acetamide tris(trifluoroacetate)]
- IC50 [1]: 98 nM

SMILES: O=C(C[C@H]1CCN(C(=O)c2cc[nH]n2)C1)Nc1ccc2cc1CCc1cncc(c1)Nc1ncc(Cl)c(n1)N2 [Example D130, N-[6-Chloro-2,4,8,18,22-pentaazatetracyclo[14.3.1.1(3,7).1(9,13)]docosa-1(20),3(22),4,6,9(21),10,12,16,18-nonaen-12-yl]-2-[(3R)-1-(1H-pyrazol-3-ylcarbonyl)pyrrolidin-3-yl]acetamide bis(trifluoroacetate)]
- IC50 [1]: 23 nM
